Measured values as given in ChEMBL document CHEMBL5625219, “Design, synthesis fusidic acid derivatives alleviate acute lung injury via inhibiting MAPK/NF-κB/NLRP3 pathway” (Eur J Med Chem, 2023).
Active and inactive are the calls of the source.

Assays:
Mus musculus [1] = assay: (§1) Anti-inflammatory activity in LPS-induced BALB/c mouse model of […] assessed as attenuation of inflammatory cell infiltration in lungs at 5 to 20 mg/kg, po preadministered with compound for 3 days followed by LPS stimulation for 6 hrs after 1 hrs compound administration on day 3 by H&E staining based analysis; format: functional, organism-based; conditions: dose 5-20 mg/kg, time 3.0 day
Mus musculus [2] = assay: (§2) In vivo inhibition of NLRP3 inflammasome activation in LPS-induced BALB/c mouse model of […] assessed as reduction in IL-1beta expression preadministered orally with compound for 3 days followed by LPS stimulation for 6 hrs after 1 hrs compound administration on day 3 by Western blot analysis; format: functional; conditions: dose 5-20 mg/kg, route po, time 3.0 day
Mus musculus [3] = assay: In vivo inhibition of MAPK activation in LPS-induced BALB/c mouse model of […] assessed as inhibition of ERK phosphorylation preadministered orally with compound for 3 days followed by LPS stimulation for 6 hrs after 1 hrs compound administration on day 3 by Western blot analysis; format: functional; conditions: dose 5-20 mg/kg, route po, time 3.0 day
Mus musculus [4] = assay: (§3) Anti-inflammatory activity in LPS-induced BALB/c mouse model of […] assessed as inhibition of LPS-induced increase in TNF-alpha expression in BALF at 5 to 20 mg/kg, po preadministered with compound for 3 days followed by LPS stimulation for 6 hrs after 1 hrs compound administration on day 3 by ELISA; format: functional, organism-based; conditions: dose 5-20 mg/kg, time 3.0 day
RAW264.7 [5] = assay: Inhibition of MAPK signaling pathway in LPS-stimulated mouse RAW264.7 cells assessed as decrease in phosphorylation of ERK at 2.5 to 10 uM by Western blot analysis; format: cell-based; conditions: dose 2.5-10 µM
Mus musculus [6] = assay: as §3, with “NO production” for “TNF-alpha expression”, “serum” for “BALF”, “Griess reagent based method” for “ELISA”; format: functional, organism-based; conditions: dose 5-20 mg/kg, time 3.0 day
Mus musculus [7] = assay: In vivo inhibition of MAPK activation in LPS-induced BALB/c mouse model of […] assessed as inhibition of p38 MAPK phosphorylation preadministered orally with compound for 3 days followed by LPS stimulation for 6 hrs after 1 hrs compound administration on day 3 by Western blot analysis; format: functional; conditions: dose 5-20 mg/kg, route po, time 3.0 day
Mus musculus [8] = assay: (§4) In vivo inhibition of NFkappaB activation in LPS-induced BALB/c mouse model of […] assessed as inhibition of NFkappaB degradation preadministered orally with compound for 3 days followed by LPS stimulation for 6 hrs after 1 hrs compound administration on day 3 by Western blot analysis; format: functional; conditions: dose 5-20 mg/kg, route po, time 3.0 day
Mus musculus [9] = assay: as §3, with “NO production” for “TNF-alpha expression”, “Griess reagent based method” for “ELISA”; format: functional, organism-based; conditions: dose 5-20 mg/kg, time 3.0 day
RAW264.7 [10] = assay: Inhibition of MAPK signaling pathway in LPS-stimulated mouse RAW264.7 cells assessed as decrease in phosphorylation of JNK at 2.5 to 10 uM by Western blot analysis; format: cell-based; conditions: dose 2.5-10 µM
RAW264.7 [11] = assay: cells; conditions: Mus musculus
Description: Anti-inflammatory activity in mouse RAW264.7 cells assessed as inhibition of LPS-induced TNF-alpha production preincubated with compound for 1 hrs followed by LPS stimulation and measured after 23 hrs by ELISA

RAW264.7 [12] = assay: Anti-inflammatory activity in LPS-stimulated mouse RAW264.7 cells assessed as inhibition of ROS production preincubated with compound for 1 hrs followed by LPS stimulation and measured after 23 hrs by DCFH-DA staining based confocal laser microscopic analysis; format: functional, cell-based; conditions: dose 2.5-10 µM, time 24.0 hrs
RAW264.7 [13] = assay: cells; conditions: Mus musculus; remark: listed apart in the source
Description: Anti-inflammatory activity in mouse RAW264.7 cells assessed as inhibition of LPS-induced NO production preincubated with compound for 1 hrs followed by LPS stimulation and measured after 23 hrs by Griess reagent based method

[14] = target: NACHT, LRR and PYD domains-containing protein 3 (Mus musculus) (UniProt Q8R4B8); assay: Inhibition of NLRP3 inflammasome activation in LPS-stimulated mouse RAW264.7 cells assessed as downregulation of NLRP3 expression by Western blot analysis; format: cell-based; conditions: dose 2.5-10 µM
Chain of NACHT, LRR and PYD domains-containing protein 3 (Mus musculus) (Q8R4B8 whole entry, the tested form may be a part): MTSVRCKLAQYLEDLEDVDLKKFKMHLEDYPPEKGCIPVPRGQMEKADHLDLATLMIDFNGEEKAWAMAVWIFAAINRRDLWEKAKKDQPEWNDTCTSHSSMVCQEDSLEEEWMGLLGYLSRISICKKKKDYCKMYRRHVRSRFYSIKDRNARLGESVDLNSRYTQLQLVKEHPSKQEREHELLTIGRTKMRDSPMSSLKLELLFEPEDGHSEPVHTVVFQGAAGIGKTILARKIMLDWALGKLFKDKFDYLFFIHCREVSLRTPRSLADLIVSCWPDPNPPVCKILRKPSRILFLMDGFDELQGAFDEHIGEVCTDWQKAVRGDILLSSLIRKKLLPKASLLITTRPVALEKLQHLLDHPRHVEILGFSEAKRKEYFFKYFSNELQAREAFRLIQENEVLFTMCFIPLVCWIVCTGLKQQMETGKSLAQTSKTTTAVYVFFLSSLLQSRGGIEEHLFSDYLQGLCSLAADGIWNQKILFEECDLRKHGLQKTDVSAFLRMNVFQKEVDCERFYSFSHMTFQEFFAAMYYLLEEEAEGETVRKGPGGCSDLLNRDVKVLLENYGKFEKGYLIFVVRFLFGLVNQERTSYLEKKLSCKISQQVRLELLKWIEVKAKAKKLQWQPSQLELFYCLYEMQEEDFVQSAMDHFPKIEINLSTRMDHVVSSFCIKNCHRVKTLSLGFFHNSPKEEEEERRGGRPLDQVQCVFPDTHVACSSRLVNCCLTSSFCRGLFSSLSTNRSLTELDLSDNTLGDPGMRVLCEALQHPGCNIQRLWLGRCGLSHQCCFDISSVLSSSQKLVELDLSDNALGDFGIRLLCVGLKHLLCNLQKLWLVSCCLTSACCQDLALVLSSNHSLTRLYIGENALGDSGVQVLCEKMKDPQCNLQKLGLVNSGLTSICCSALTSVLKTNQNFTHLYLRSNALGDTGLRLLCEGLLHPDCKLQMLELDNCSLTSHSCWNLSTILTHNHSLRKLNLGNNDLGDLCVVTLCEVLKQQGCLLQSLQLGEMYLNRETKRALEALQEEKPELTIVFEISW

RAW264.7 [15] = assay: cells; conditions: Mus musculus; remark: listed apart in the source
Description: Anti-inflammatory activity in mouse RAW264.7 cells assessed as inhibition of LPS-induced IL-6 production preincubated with compound for 1 hrs followed by LPS stimulation and measured after 23 hrs by ELISA

RAW264.7 [16] = assay: Inhibition of NFkappaB signaling pathway in LPS-stimulated mouse RAW264.7 cells assessed as decrease in NFkappaB protein level at 2.5 to 10 uM by Western blot analysis; format: cell-based; conditions: dose 2.5-10 µM
Mus musculus [17] = assay: as §3, with “IL-6” for “TNF-alpha”, “serum” for “BALF”; format: functional, organism-based; conditions: dose 5-20 mg/kg, time 3.0 day
Mus musculus [18] = assay: In vivo inhibition of MAPK activation in LPS-induced BALB/c mouse model of […] assessed as inhibition of JNK phosphorylation preadministered orally with compound for 3 days followed by LPS stimulation for 6 hrs after 1 hrs compound administration on day 3 by Western blot analysis; format: functional; conditions: dose 5-20 mg/kg, route po, time 3.0 day
[19] = target: NACHT, LRR and PYD domains-containing protein 3 (Mus musculus) (UniProt Q8R4B8); assay: Inhibition of NLRP3 inflammasome activation in LPS-stimulated mouse RAW264.7 cells assessed as decrease in caspase-1 expression at 2.5 to 10 uM by Western blot analysis; format: cell-based; conditions: dose 2.5-10 µM
Mus musculus [20] = assay: as §2, with “NLRP3” for “IL-1beta”; format: functional; conditions: dose 5-20 mg/kg, route po, time 3.0 day
RAW264.7 [21] = assay: Cytotoxicity against mouse RAW264.7 cells assessed as reduction in cell viability at 30 uM incubated for 24 hrs by MTT assay relative to control; format: toxicity, cell-based; conditions: raw264.7, 24 h
Mus musculus [22] = assay: as §4, with “inhibition of IkappaBalpha degradation preadministered” for “inhibition of NFkappaB degradation preadministered”; format: functional; conditions: dose 5-20 mg/kg, route po, time 3.0 day
Mus musculus [23] = assay: as §3, with “serum” for “BALF”; format: functional, organism-based; conditions: dose 5-20 mg/kg, time 3.0 day
[24] = Cytotoxicity against mouse RAW264.7 cells assessed as inhibition of cell growth incubated for 24 hrs by MTT assay; format: toxicity, cell-based
Mus musculus [25] = assay: as §1, with “lung alveolar hemorrhage” for “inflammatory cell infiltration in lungs”; format: functional, organism-based; conditions: dose 5-20 mg/kg, time 3.0 day
RAW264.7 [26] = assay: Inhibition of MAPK signaling pathway in LPS-stimulated mouse RAW264.7 cells assessed as decrease in phosphorylation of p38 MAPK at 2.5 to 10 uM by Western blot analysis; format: cell-based; conditions: dose 2.5-10 µM
RAW264.7 [27] = assay: Anti-inflammatory activity in LPS-stimulated mouse RAW264.7 cells assessed as reduction in COX-2 expression by Western blot analysis; format: functional, cell-based; conditions: dose 2.5-10 µM
RAW264.7 [28] = assay: Inhibition of NFkappaB signaling pathway in LPS-stimulated mouse RAW264.7 cells assessed as decrease in IkappaBalpha protein level at 2.5 to 10 uM by Western blot analysis; format: cell-based; conditions: dose 2.5-10 µM
[29] = target: NACHT, LRR and PYD domains-containing protein 3 (Mus musculus) (UniProt Q8R4B8); assay: Inhibition of NLRP3 inflammasome activation in LPS-stimulated mouse RAW264.7 cells assessed as downregulation of IL-1beta expression by Western blot analysis; format: cell-based; conditions: dose 2.5-10 µM
Mus musculus [30] = assay: as §3, with “IL-6” for “TNF-alpha”; format: functional, organism-based; conditions: dose 5-20 mg/kg, time 3.0 day
RAW264.7 [31] = assay: Anti-inflammatory activity in LPS-stimulated mouse RAW264.7 cells assessed as reduction in iNOS expression by Western blot analysis; format: functional, cell-based; conditions: dose 2.5-10 µM
Mus musculus [32] = assay: as §2, with “caspase-1” for “IL-1beta”; format: functional; conditions: dose 5-20 mg/kg, route po, time 3.0 day
Mus musculus [33] = assay: Anti-inflammatory activity in LPS-induced BALB/c mouse model of […] assessed as inhibition of LPS-induced increase in lung W/D ratio at 5 to 20 mg/kg, po preadministered with compound for 3 days followed by LPS stimulation for 6 hrs after 1 hrs compound administration on day 3; format: functional, organism-based; conditions: dose 5-20 mg/kg, time 3.0 day
Mus musculus [34] = assay: Anti-inflammatory activity in LPS-induced BALB/c mouse model of […] assessed as inhibition of iNOS expression preadministered orally with compound for 3 days followed by LPS stimulation for 6 hrs after 1 hrs compound administration on day 3 by Western blot analysis; format: functional, organism-based; conditions: dose 5-20 mg/kg, route po, time 3.0 day
Mus musculus [35] = assay: Anti-inflammatory activity in LPS-induced BALB/c mouse model of […] assessed as inhibition of COX-2 expression preadministered orally with compound for 3 days followed by LPS stimulation for 6 hrs after 1 hrs compound administration on day 3 by Western blot analysis; format: functional, organism-based; conditions: dose 5-20 mg/kg, route po, time 3.0 day
RAW264.7 [36] = assay: Anti-inflammatory activity in LPS-stimulated mouse RAW264.7 cells assessed as inhibition of ROS production at 2.5 to 10 uM preincubated with compound for 1 hrs followed by LPS stimulation and measured after 23 hrs by DCFH-DA staining based flow cytometric analysis; format: functional, cell-based; conditions: dose 2.5-10 µM, time 24.0 hrs
Mus musculus [37] = assay: as §4, with “degradation at 10 mg/kg, po” for “degradation”, “preadministered” for “preadministered orally”; format: functional, organism-based; conditions: time 3.0 day
Mus musculus [38] = assay: (§5) Anti-inflammatory activity in LPS-induced BALB/c mouse model of […] assessed as inhibition of LPS-induced increase in lung W/D ratio at 10 mg/kg, po preadministered with compound for 3 days followed by LPS stimulation for 6 hrs after 1 hrs compound administration on day 3; format: functional, organism-based; conditions: time 3.0 day
Mus musculus [39] = assay: as §5, with “increase in NO production in serum at 10” for “increase in lung W/D ratio at 10”, “day 3 by Griess reagent based method” for “day 3”; format: functional, organism-based; conditions: time 3.0 day
Mus musculus [40] = assay: as §3, with “IL-6” for “TNF-alpha”, “10” for “5 to 20”; format: functional, organism-based; conditions: time 3.0 day
Mus musculus [41] = assay: as §3, with “10” for “5 to 20”; format: functional, organism-based; conditions: time 3.0 day
Mus musculus [42] = assay: In vivo inhibition of NFkappaB activation in LPS-induced BALB/c mouse model of […] assessed as inhibition of IkappaBalpha degradation at 10 mg/kg, po preadministered with compound for 3 days followed by LPS stimulation for 6 hrs after 1 hrs compound administration on day 3 by Western blot analysis; format: functional, organism-based; conditions: time 3.0 day
Mus musculus [43] = assay: as §3, with “serum” for “BALF”, “10” for “5 to 20”; format: functional, organism-based; conditions: time 3.0 day
Mus musculus [44] = assay: as §5, with “increase in NO production in BALF at 10” for “increase in lung W/D ratio at 10”, “day 3 by Griess reagent based method” for “day 3”; format: functional, organism-based; conditions: time 3.0 day
Mus musculus [45] = assay: as §1, with “lung alveolar hemorrhage” for “inflammatory cell infiltration in lungs”, “10” for “5 to 20”; format: functional, organism-based; conditions: time 3.0 day
Mus musculus [46] = assay: as §5, with “increase in IL-6 expression in serum at 10” for “increase in lung W/D ratio at 10”, “day 3 by ELISA” for “day 3”; format: functional, organism-based; conditions: time 3.0 day
Mus musculus [47] = assay: as §1, with “10” for “5 to 20”; format: functional, organism-based; conditions: time 3.0 day

CC(=O)O[C@H]1C[C@@]2(C)[C@@H](C[C@@H](O)[C@H]3[C@@]4(C)CC[C@@H](O)[C@@H](C)[C@@H]4CC[C@@]32C)/C1=C(\CCC=C(C)C)C(=O)OCc1cn(-c2ccccc2)nn1
94.3 µM: IC50 at 24 h [24]
active: Activity (Mus musculus [1]) | inhibition (Mus musculus [2]) Dose-Dependent Effect | inhibition (Mus musculus [3]) Dose-Dependent Effect | Activity (Mus musculus [4]) | inhibition (RAW264.7 [5]) | Activity (Mus musculus [6]) | inhibition (Mus musculus [7]) Dose-Dependent Effect | inhibition (Mus musculus [8]) Dose-Dependent Effect | Activity (Mus musculus [9]) | inhibition (RAW264.7 [10]) | Activity (RAW264.7 [12]) Dose-Dependent Effect | inhibition [14] Dose-Dependent Effect | inhibition (RAW264.7 [16]) | Activity (Mus musculus [17]) | inhibition (Mus musculus [18]) Dose-Dependent Effect | inhibition [19] | inhibition (Mus musculus [20]) Dose-Dependent Effect | inhibition (Mus musculus [22]) Dose-Dependent Effect | Activity (Mus musculus [23]) | Activity (Mus musculus [25]) | inhibition (RAW264.7 [26]) | Activity (RAW264.7 [27]) Dose-Dependent Effect | inhibition (RAW264.7 [28]) | inhibition [29] Dose-Dependent Effect | Activity (Mus musculus [30]) | Activity (RAW264.7 [31]) Dose-Dependent Effect | inhibition (Mus musculus [32]) Dose-Dependent Effect | Activity (Mus musculus [33]) | Activity (Mus musculus [34]) Dose-Dependent Effect | Activity (Mus musculus [35]) Dose-Dependent Effect | Activity (RAW264.7 [36])
102.79%: Activity (RAW264.7 [21])
3.88 µM: IC50 (RAW264.7 [11])
3.26 µM: IC50 (RAW264.7 [13])
1.85 µM: IC50 (RAW264.7 [15])

Cc1ccc(-c2cc(C(F)(F)F)nn2-c2ccc(S(N)(=O)=O)cc2)cc1
active: inhibition (Mus musculus [37]) | Activity (Mus musculus [38]) | Activity (Mus musculus [39]) | Activity (Mus musculus [40]) | Activity (Mus musculus [41]) | inhibition (Mus musculus [42]) | Activity (Mus musculus [43]) | Activity (Mus musculus [44]) | Activity (Mus musculus [45]) | Activity (Mus musculus [46]) | Activity (Mus musculus [47])
